Results on 22 substances are retold here after US20240115705A1, “Regulation of Butyrophilin subfamily 3 member A1 (BTN3A1, CD277)” (The J. Gladstone Institutes, a testamentary trust …, priority 2021, published 2024).

The test system of this series is Daudi-Cas9 cells. The experiment in a line: Cancer-T cell co-culture genome-wide CRISPR knockout screen (Vγ9Vδ2 T cell killing). The format is cell-based, human. The conditions noted are these: for score: MAGeCK sgRNA test, co-culture screen; for LFC: log-fold change of sgRNA, surviving cells after co-culture vs baseline; for LFC / treat mean: MAGeCK; for treat mean: sgRNA abundance in surviving Daudi-Cas9 KO cells after 24 hours Vγ9Vδ2 T cell co-culture with zoledronate; for high_in_treatment: sgRNA enriched (TRUE) or depleted (FALSE) after T cell co-culture.

Regarding “FBXW7_TGAAGTCTCGTTGAAACTG: library sgRNA targeting FBXW7 (as printed in the source, key not given here)”, the score is 6.8093, the LFC was 1.4811, the treat mean was found to be 2652.5 and the high_in_treatment entry is recorded as “TRUE”.

Regarding “FBXW7_TTCTTCCAACTGTCCTTGC: library sgRNA targeting FBXW7 (as printed in the source, key not given here)”, the score is reported as 7.5154, the LFC is 1.1042, the treat mean is listed as 6114.5 and the high_in_treatment entry was “TRUE”.

On to “FCRL2_ACTATTTCTGTAGTACCAA: library sgRNA targeting FCRL2 (listed as DNA, chemistry not fully specified)”, for which the score is 6.1577, the LFC is 2.9186, the treat mean is recorded as 417.46 and the high_in_treatment entry is on record as “TRUE”.

For “GGNBP2_GTATGGGAACTAATGTCGC: library sgRNA targeting GGNBP2 (listed as DNA, chemistry not fully specified)”, the score is listed as 6.4369, the LFC was determined as 1.4472, the treat mean is listed as 2491.2 and the high_in_treatment result is “TRUE”.

Turning to “GMPPB_GCCGTGAGCTACATGTCGC: library sgRNA targeting GMPPB (listed as DNA, chemistry not fully specified)”, the score is 6.4797, the LFC is on record as −2.6559, the treat mean was 627.87 and the high_in_treatment result is recorded as “FALSE”.

As to “GSS_ACCCCAGCTGTGCACCGGT: library sgRNA targeting GSS (listed as DNA, chemistry not fully specified)”, the score worked out at 6.1722, the LFC is −4.0666, the treat mean is reported as 169.48 and the high_in_treatment entry is reported as “FALSE”.

Consider “GTF2A2_AGCACTGGCTCAGAGGGTC: library sgRNA targeting GTF2A2 (listed as DNA, chemistry not fully specified)”, for which the score was found to be 6.6409, the LFC is recorded as −6.616, the treat mean was determined as 29.574 and the high_in_treatment result is on record as “FALSE”.

Take “HISTIH3J_CACGCAAGGCCACGGTGCC: library sgRNA targeting HIST-1H3J (listed as DNA, chemistry not fully specified)”: the score is given as 6.0349, the LFC is listed as 1.0769, the treat mean came to 4138.5 and the high_in_treatment result is listed as “TRUE”.

Regarding “IFFO1_GGCCTGGGTCGTCGCGACC: library sgRNA targeting IFFO1 (as printed in the source, key not given here)”, the score stood at 5.9717, the LFC stood at 4.5353, the treat mean is on record as 68.011 and the high_in_treatment result is reported as “TRUE”.

As for “IFNAR1_TCCATCAGATGCTTGTACG: library sgRNA targeting IFNAR1 (listed as DNA, chemistry not fully specified)”, the score is reported as 7.1422, the LFC was found to be 1.2274, the treat mean is 4399.3 and the high_in_treatment result was “TRUE”.

Turning to “IRF1_AGCCGAGATGCTAAGAGCA: library sgRNA targeting IRF1 (as printed in the source, key not given here)”, the score stood at 8.1693, the LFC is 1.6173, the treat mean is on record as 3151.9 and the high_in_treatment entry is on record as “TRUE”.

Take “IRF1_CACCTCCTCGATATCTGGC: library sgRNA targeting IRF1 (as printed in the source, key not given here)”: the score is 8.8869, the LFC was 1.2122, the treat mean was 7029.4 and the high_in_treatment result is listed as “TRUE”.

As to “IRF1_CTAGGCCGATACAAAGCAG: library sgRNA targeting IRF1 (as printed in the source, key not given here)”, the score turned out to be 9.7786, the LFC is given as 1.6906, the treat mean is on record as 4103.9 and the high_in_treatment entry is on record as “TRUE”.

Regarding “IRF1_GGAAGCATGCTGCCAAGCA: library sgRNA targeting IRF1 (as printed in the source, key not given here)”, the score turned out to be 8.5638, the LFC came to 1.6107, the treat mean was 3499.5 and the high_in_treatment result is “TRUE”.

In the case of “IRF1_TGCCTGTTTGTTCCGGAGC: library sgRNA targeting IRF1 (as printed in the source, key not given here)”, the score came to 11.386, the LFC was 1.4325, the treat mean worked out at 8072.2 and the high_in_treatment result is listed as “TRUE”.

As to “IRF9_TGTATCAGTTGCTGCCACC: library sgRNA targeting IRF9 (as printed in the source, key not given here)”, the score came out at 7.0068, the LFC was 1.2192, the treat mean is on record as 4293.9 and the high_in_treatment result was “TRUE”.

For “LUM_TAGAAAACTCCAAGATAAA: library sgRNA targeting LUM (listed as DNA, chemistry not fully specified)”, the score stood at 8.61, the LFC is on record as 4.64, the treat mean is listed as 171.75 and the high_in_treatment entry was “TRUE”.

“MED26_CCTCGGAACTCACGGCATG: library sgRNA targeting MED26 (as printed in the source, key not given here)”: the score was determined as 6.025, the LFC is given as −1.9192, the treat mean was 1185.6 and the high_in_treatment result was “FALSE”.

As to “MRPL9_CTCCACGATGACCGTGCCC: library sgRNA targeting MRPL9 (as printed in the source, key not given here)”, the score amounted to 6.5755, the LFC is on record as −4.3743, the treat mean turned out to be 152.42 and the high_in_treatment entry is “FALSE”.

Consider “MRPL28_TTCCCCCCGAATCCCAGCG: library sgRNA targeting MRPL28 (as printed in the source, key not given here)”, for which the score was 7.2159, the LFC is on record as −3.2156, the treat mean is listed as 469.77 and the high_in_treatment entry is reported as “FALSE”.

Regarding “MRPL55_CGACTCTACCCCGTGCTGC: library sgRNA targeting MRPL55 (as printed in the source, key not given here)”, the score came out at 6.305, the LFC is on record as −4.7404, the treat mean was determined as 104.65 and the high_in_treatment entry is given as “FALSE”.

As to “MRPS26_CCCCCGGCCGCACACCTGA: library sgRNA targeting MRPS26 (as printed in the source, key not given here)”, the score turned out to be 7.3571, the LFC is recorded as −3.3597, the treat mean was 431.96 and the high_in_treatment result is “FALSE”.
